From ChEMBL document CHEMBL2169808, “Discovery of pyrazole carboxylic acids as potent inhibitors of rat long chain L-2-hydroxy acid oxidase” (Bioorg Med Chem Lett, 2012) come the findings set out here.

Assay [1] has as its target T1, 2-Hydroxyacid oxidase 2 (Homo sapiens) (UniProt Q9NYQ3).
T1 sequence (whole entry): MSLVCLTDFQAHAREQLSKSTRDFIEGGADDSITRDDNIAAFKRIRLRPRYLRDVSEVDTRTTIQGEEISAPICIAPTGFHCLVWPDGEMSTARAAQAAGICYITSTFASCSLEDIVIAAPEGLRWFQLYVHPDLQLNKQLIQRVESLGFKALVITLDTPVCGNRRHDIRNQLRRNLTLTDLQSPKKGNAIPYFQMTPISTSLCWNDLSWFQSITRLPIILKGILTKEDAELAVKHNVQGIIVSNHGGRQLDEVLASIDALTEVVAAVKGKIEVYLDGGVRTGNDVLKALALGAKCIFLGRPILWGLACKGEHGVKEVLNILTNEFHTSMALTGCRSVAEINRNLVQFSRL
Kind of assay: Inhibition of human Hao2-mediated oxidation of 2-hydroxyoctanoic acid assessed as proportionate release of H2O2 at 1 uM.

A further assay deals with T2, 2-Hydroxyacid oxidase 2 (Rattus norvegicus, UniProt Q07523).
T2 sequence (Q07523 whole entry): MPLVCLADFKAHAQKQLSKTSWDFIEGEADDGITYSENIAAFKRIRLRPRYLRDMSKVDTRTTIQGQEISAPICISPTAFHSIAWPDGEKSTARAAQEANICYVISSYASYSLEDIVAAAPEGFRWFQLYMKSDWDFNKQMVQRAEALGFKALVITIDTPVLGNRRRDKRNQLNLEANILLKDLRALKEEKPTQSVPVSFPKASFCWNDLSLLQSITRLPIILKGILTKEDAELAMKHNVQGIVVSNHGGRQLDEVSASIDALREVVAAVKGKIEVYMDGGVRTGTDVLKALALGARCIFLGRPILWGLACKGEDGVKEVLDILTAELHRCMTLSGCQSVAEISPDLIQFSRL
Kind of assay: Inhibition of rat Hao2-mediated oxidation of 2-hydroxyoctanoic acid assessed as proportionate release of H2O2.

The target in assay [2] is T1, 2-Hydroxyacid oxidase 2 (Homo sapiens). Kind of assay: Inhibition of human Hao2-mediated oxidation of 2-hydroxyoctanoic acid assessed as proportionate release of H2O2 at 10 uM.
The species named for a further assay is Rattus norvegicus. Briefly: Selectivity ratio of IC50 for rat Hao1 to IC50 for rat Hao2.

Molecules are shown by their SMILES.

As a reminder, the inhibition is the relative decrease from the control value, in per cent. The IC50 is the midpoint of a concentration-inhibition curve. Consider `Cc1n[nH]c(C(=O)O)c1Cc1cccc(-c2ccc(C(=O)O)cc2)c1`, for which the figures for the inhibition in assay [1] and in assay [2] were 3% and 15%, respectively. Besides, the IC50 on 2-Hydroxyacid oxidase 2 turned out to be 1100 nM. Further, in the assay filed under Rattus norvegicus, the Ratio IC50 was greater than 150.
As to `Cc1[nH]nc(C(=O)O)c1Cc1cccc(C#N)c1`, the IC50 at 2-Hydroxyacid oxidase 2 was found to be 500 nM.
In the case of `Cc1[nH]nc(C(=O)O)c1Cc1cccc(C(N)=O)c1`, the IC50 on 2-Hydroxyacid oxidase 2 turned out to be 900 nM.
The same measure, in the same setting: the value for `O=C(O)c1n[nH]c(CCc2ccccc2)c1Cc1cccc(-c2ccc(F)cc2)c1` was 800 nM.
For `Cc1n[nH]c(C(=O)O)c1Cc1ccccc1C(F)(F)F`, the inhibition in assay [1] was determined as 13%; in assay [2] it was 38%. The Ratio IC50 in the assay filed under Rattus norvegicus is greater than 150.
The like results for `Cc1n[nH]c(C(=O)O)c1Cc1cc2ccccc2s1` were, in that order, 8%, 29% and greater than 150.
As for `Cc1n[nH]c(C(=O)O)c1Cc1ccc(-c2ccc(C(F)(F)F)cc2)cc1`, the inhibition in assay [1] was 5%; in assay [2], 14%. Moreover, the Ratio IC50 in the assay listed under Rattus norvegicus is greater than 150.
The like results for `Cc1n[nH]c(C(=O)O)c1Cc1ccc(-c2ccc(OC(F)(F)F)cc2)cc1` were, in that order, 11%, 29% and greater than 150.
Consider `Cc1[nH]nc(C(=O)O)c1Cc1ccc(-c2ccc(OC(F)(F)F)cc2)cc1`, for which the IC50 at 2-Hydroxyacid oxidase 2 stood at 2000 nM.
`Cc1n[nH]c(C(=O)O)c1Cc1ccc(Oc2ccccc2)cc1`: the inhibition worked out at 10% in assay [1] and 43% in assay [2]. In the assay filed under Rattus norvegicus, the Ratio IC50 is greater than 150.
For the molecule `Cc1n[nH]c(C(=O)O)c1Cc1ccc(C(N)=O)cc1`, the inhibition is 0% in assay [1] and 8% in assay [2]. Also, in the assay listed under Rattus norvegicus, the Ratio IC50 is greater than 150.
For `Cc1n[nH]c(C(=O)O)c1Cc1cccc(-c2ccc(C(N)=O)cc2)c1`, the inhibition in assay [1] stood at 18%; in assay [2], 60%. The IC50 at 2-Hydroxyacid oxidase 2 amounted to 200 nM. Also, the Ratio IC50 in the assay filed under Rattus norvegicus was greater than 150.
Regarding `Cc1n[nH]c(C(=O)O)c1Cc1cccc(-c2ccc(C#N)cc2)c1`, the inhibition was 13% in assay [1] and 46% in assay [2]. Also, the Ratio IC50 in the assay filed under Rattus norvegicus was greater than 150.
On to `CCOc1[nH]nc(C(=O)O)c1Cc1cccc(-c2ccc(F)cc2)c1`, for which the IC50 at 2-Hydroxyacid oxidase 2 came to 1200 nM.
For `Cc1n[nH]c(C(=O)O)c1Cc1cccc(-c2ccc(OC(F)(F)F)cc2)c1`, the inhibition in assay [1] was 6%; in assay [2], 34%. The IC50 at 2-Hydroxyacid oxidase 2 is 300 nM. For the same molecule, in the assay listed under Rattus norvegicus, the Ratio IC50 was greater than 150.
On to `Cc1n[nH]c(C(=O)O)c1Cc1cccc(-c2ccccc2F)c1`, for which the inhibition in assay [1] came to 5%; in assay [2], 22%. Further, the IC50 at 2-Hydroxyacid oxidase 2 was determined as 900 nM. The Ratio IC50 in the assay filed under Rattus norvegicus is greater than 150.
On to `Cc1[nH]nc(C(=O)O)c1Cc1ccc(F)cc1`, for which the IC50 at 2-Hydroxyacid oxidase 2 was 700 nM.
In the case of `Cc1[nH]nc(C(=O)O)c1Cc1ccc(Oc2ccccc2)cc1`, the IC50 on 2-Hydroxyacid oxidase 2 turned out to be 500 nM.
On to `Cc1n[nH]c(C(=O)O)c1Cc1cccc(C#N)c1`, for which the inhibition in assay [1] came to 6%; in assay [2] it was 19%. The Ratio IC50 in the assay listed under Rattus norvegicus is greater than 150.
Consider `Cc1[nH]nc(C(N)=O)c1Cc1cccc(-c2ccc(F)cc2)c1`, for which the IC50 at 2-Hydroxyacid oxidase 2 was found to be 1400 nM.
As for `O=C(O)c1[nH]nc(Cc2ccccc2)c1Cc1cccc(-c2ccc(F)cc2)c1`, the inhibition amounted to 10% in assay [1] and 8% in assay [2]. The Ratio IC50 in the assay filed under Rattus norvegicus was greater than 150.
For `Cc1[nH]nc(C(=O)O)c1Cc1cccc(-c2cccnc2)c1`, on 2-Hydroxyacid oxidase 2, the IC50 came to 400 nM.
Regarding `O=C(O)c1n[nH]c(Cc2ccccc2)c1Cc1cccc(-c2ccc(F)cc2)c1`, the IC50 at 2-Hydroxyacid oxidase 2 was 700 nM.
On to `Cc1n[nH]c(C(=O)O)c1Cc1ccc(OC(F)(F)F)cc1`, for which the inhibition is 7% in assay [1] and 34% in assay [2]. For the same molecule, the IC50 at 2-Hydroxyacid oxidase 2 was found to be 1300 nM. Besides, the Ratio IC50 in the assay listed under Rattus norvegicus is greater than 150.
As for `Cc1[nH]nc(C(=O)O)c1Cc1ccc(-c2ccc(F)cc2)cc1`, at 2-Hydroxyacid oxidase 2, the IC50 was 400 nM.
For `Cc1n[nH]c(C(=O)O)c1Cc1cccc(-c2ccc(F)cc2)c1`, the figures for the inhibition in assay [1] and in assay [2] were 16% and 55%, respectively. The Ratio IC50 in the assay listed under Rattus norvegicus is greater than 150.
The like results for `CCOc1n[nH]c(C(=O)O)c1Cc1cccc(-c2ccc(F)cc2)c1` were, in that order, 1%, 17% and greater than 150.
Regarding `Cc1n[nH]c(C(N)=O)c1Cc1cccc(-c2ccc(F)cc2)c1`, the results for the inhibition in assay [1] and in assay [2] were 1% and 14%, respectively.
Take `Cc1[nH]nc(C(=O)O)c1Cc1cccc(C(F)(F)F)c1`: the IC50 at 2-Hydroxyacid oxidase 2 came out at 300 nM.
In the case of `O=C(O)c1[nH]nc(CCc2ccccc2)c1Cc1cccc(-c2ccc(F)cc2)c1`, the inhibition was found to be 4% in assay [1] and 16% in assay [2]. For the same molecule, the Ratio IC50 in the assay listed under Rattus norvegicus was greater than 150.
Turning to `Cc1[nH]nc(C(=O)O)c1Cc1cccc(-c2cccc(F)c2)c1`, the IC50 at 2-Hydroxyacid oxidase 2 worked out at 500 nM.
For `Cc1n[nH]c(C(=O)O)c1Cc1cccc2ccccc12`, the inhibition in assay [1] amounted to 22%; in assay [2], 59%. Moreover, the Ratio IC50 in the assay listed under Rattus norvegicus was greater than 150.
`CC(C)c1n[nH]c(C(=O)O)c1Cc1cccc(-c2ccc(F)cc2)c1`: the inhibition in assay [1] was 2%; in assay [2] it was 11%. Besides, on 2-Hydroxyacid oxidase 2, the IC50 amounted to 500 nM. Moreover, the Ratio IC50 in the assay filed under Rattus norvegicus was greater than 150.
Regarding `Cc1[nH]nc(C(=O)O)c1Cc1cccc(-c2ccc(C(F)(F)F)cc2)c1`, at 2-Hydroxyacid oxidase 2, the IC50 was determined as 400 nM.
As for `Cc1[nH]nc(C(=O)O)c1Cc1ccc(C(N)=O)cc1`, the IC50 on 2-Hydroxyacid oxidase 2 is 1100 nM.
Regarding `Cc1n[nH]c(C(=O)O)c1Cc1cccc(-c2ccc(C(F)(F)F)cc2)c1`, the inhibition in assay [1] was 8%; in assay [2], 30%. Also, in the assay listed under Rattus norvegicus, the Ratio IC50 was greater than 150.
For `Cc1n[nH]c(C(=O)O)c1Cc1cccc(Oc2ccccc2)c1`, the inhibition in assay [1] amounted to 12%; in assay [2] it was 41%. Further, the IC50 at 2-Hydroxyacid oxidase 2 is 600 nM. Also, in the assay filed under Rattus norvegicus, the Ratio IC50 is greater than 150.
As for `Cc1n[nH]c(C(=O)O)c1Cc1cccc(OC(F)(F)F)c1`, the inhibition in assay [1] is 2%; in assay [2] it was 26%. Also, at 2-Hydroxyacid oxidase 2, the IC50 worked out at 700 nM. In the assay filed under Rattus norvegicus, the Ratio IC50 was greater than 150.
As for `Cc1n[nH]c(C(=O)O)c1CCc1ccc(-c2ccc(F)cc2)cc1`, the inhibition turned out to be 5% in assay [1] and 39% in assay [2]. Also, the half-inhibitory concentration (IC50) on 2-Hydroxyacid oxidase 2 was 900 nM. Moreover, the Ratio IC50 in the assay listed under Rattus norvegicus was greater than 150.
The matching figures for `O=C(O)c1[nH]nc(-c2ccccc2)c1Cc1cccc(-c2ccc(F)cc2)c1`: 1%, 14%, 1800 nM and greater than 150.
`Cc1[nH]nc(C(=O)O)c1Cc1ccc(-c2ccc(C(F)(F)F)cc2)cc1`: the IC50 at 2-Hydroxyacid oxidase 2 was 1100 nM.
For the molecule `Cc1[nH]nc(C(=O)O)c1Cc1cccc2ccccc12`, the IC50 on 2-Hydroxyacid oxidase 2 was 200 nM.
`Cc1n[nH]c(C(=O)O)c1CCc1cccc(-c2ccc(F)cc2)c1`: the inhibition in assay [1] came to 9%; in assay [2], 45%. The IC50 at 2-Hydroxyacid oxidase 2 was determined as 900 nM. Also, the Ratio IC50 in the assay listed under Rattus norvegicus was greater than 150.
With `Cc1n[nH]c(C(=O)O)c1Cc1cccc(-c2cccc(F)c2)c1`, the inhibition was determined as 20% in assay [1] and 50% in assay [2]. Also, the Ratio IC50 in the assay listed under Rattus norvegicus was greater than 150.
As to `Cc1n[nH]c(C(=O)O)c1Cc1cccc(C(N)=O)c1`, the inhibition in assay [1] and in assay [2] was 8% each time. In the assay filed under Rattus norvegicus, the Ratio IC50 was greater than 150.
For the molecule `CCc1[nH]nc(C(=O)O)c1Cc1cccc(-c2ccc(F)cc2)c1`, the IC50 at 2-Hydroxyacid oxidase 2 came to 300 nM.
As for `Cc1n[nH]c(C(=O)O)c1Cc1ccc(F)cc1`, the inhibition came to 7% in assay [1] and 14% in assay [2]. The Ratio IC50 in the assay listed under Rattus norvegicus is greater than 150.
With `CCc1n[nH]c(C(=O)O)c1Cc1cccc(-c2ccc(F)cc2)c1`, the inhibition in assay [1] worked out at 5%; in assay [2], 36%. In addition, the Ratio IC50 in the assay listed under Rattus norvegicus was greater than 150.
On to `Cc1n[nH]c(C(=O)O)c1Cc1cccc(C(F)(F)F)c1`, for which the figures for the inhibition in assay [1] and in assay [2] were 5% and 23%, respectively. For the same molecule, the Ratio IC50 in the assay filed under Rattus norvegicus was greater than 150.
Take `Cc1n[nH]c(C(=O)O)c1Cc1cccc(-c2ccc(CC(=O)O)cc2)c1`: the inhibition in assay [1] worked out at 2%; in assay [2], 21%. For the same molecule, the Ratio IC50 in the assay listed under Rattus norvegicus was greater than 150.
Turning to `Cc1n[nH]c(C(=O)O)c1Cc1ccc(-c2ccc(F)cc2)cc1`, the inhibition amounted to 11% in assay [1] and 25% in assay [2]. Moreover, the Ratio IC50 in the assay listed under Rattus norvegicus was greater than 150.
For the molecule `Cc1n[nH]c(C(=O)O)c1Cc1cccc(-c2cccnc2)c1`, the inhibition in assay [1] was 13%; in assay [2], 45%. The Ratio IC50 in the assay listed under Rattus norvegicus is greater than 150.
For `Cc1[nH]nc(C(=O)O)c1Cc1ccccc1C(F)(F)F`, on 2-Hydroxyacid oxidase 2, the IC50 was determined as 1300 nM.
With `Cc1[nH]nc(C(=O)O)c1Cc1cccc(-c2ccc(CC(=O)O)cc2)c1`, the IC50 at 2-Hydroxyacid oxidase 2 came out at 400 nM.
Same read-out and setting: the value for `Cc1[nH]nc(C(=O)O)c1Cc1cccc(-c2ccc(C#N)cc2)c1` was 300 nM.
